Experimental findings from patent US20250388605A1, “HETEROBIFUNCTIONAL COMPOUNDS AND METHODS OF TREATING DISEASE” (Halda Therapeutics OpCo, Inc., priority 2022, published 2025) are described below.

For assay [1], the system named is T-Rex 293 cell line SC3 cells having increased expression of androgen receptor protein due to exposure to doxycycline. The assay can be described thus: Cellular growth inhibition, T-Rex 293 SC3 cells with doxycycline (increased androgen receptor expression), CellTiter-Glo. The format is cell-based. The conditions noted are these: T-Rex 293 SC3 cells with 10 ng/mL doxycycline (increased androgen receptor expression), 72 hours, CellTiter-Glo 2.0. In outline: (§1)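 Doxycycline (10 ng/mL) was either included or omitted to toggle wild-type androgen receptor expression in SC3 cells, a T-Rex 293 clone, grown in stripped-serum, phenol red-free medium. After 72 hours with compound, viable cells were quantified by CellTiter-Glo 2.0.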
In general terms: In ATP-based viability assays light output follows the ATP content of the culture.

Assay [2] concerns T-Rex 293 cell line SC3 cells lacking increased expression of androgen receptor protein. As to the kind of experiment: Cellular growth inhibition, T-Rex 293 SC3 cells without doxycycline (no increased androgen receptor expression), CellTiter-Glo. The conditions noted are these: T-Rex 293 SC3 cells not exposed to doxycycline (no increased androgen receptor expression), 72 hours. The format is cell-based. In outline: as §1

The next assay deals with T1, androgen receptor (Homo sapiens, UniProt P10275).
T1 construct: host or cells: unnamed cells, cytosolic fraction
T1 sequence (P10275 1-920): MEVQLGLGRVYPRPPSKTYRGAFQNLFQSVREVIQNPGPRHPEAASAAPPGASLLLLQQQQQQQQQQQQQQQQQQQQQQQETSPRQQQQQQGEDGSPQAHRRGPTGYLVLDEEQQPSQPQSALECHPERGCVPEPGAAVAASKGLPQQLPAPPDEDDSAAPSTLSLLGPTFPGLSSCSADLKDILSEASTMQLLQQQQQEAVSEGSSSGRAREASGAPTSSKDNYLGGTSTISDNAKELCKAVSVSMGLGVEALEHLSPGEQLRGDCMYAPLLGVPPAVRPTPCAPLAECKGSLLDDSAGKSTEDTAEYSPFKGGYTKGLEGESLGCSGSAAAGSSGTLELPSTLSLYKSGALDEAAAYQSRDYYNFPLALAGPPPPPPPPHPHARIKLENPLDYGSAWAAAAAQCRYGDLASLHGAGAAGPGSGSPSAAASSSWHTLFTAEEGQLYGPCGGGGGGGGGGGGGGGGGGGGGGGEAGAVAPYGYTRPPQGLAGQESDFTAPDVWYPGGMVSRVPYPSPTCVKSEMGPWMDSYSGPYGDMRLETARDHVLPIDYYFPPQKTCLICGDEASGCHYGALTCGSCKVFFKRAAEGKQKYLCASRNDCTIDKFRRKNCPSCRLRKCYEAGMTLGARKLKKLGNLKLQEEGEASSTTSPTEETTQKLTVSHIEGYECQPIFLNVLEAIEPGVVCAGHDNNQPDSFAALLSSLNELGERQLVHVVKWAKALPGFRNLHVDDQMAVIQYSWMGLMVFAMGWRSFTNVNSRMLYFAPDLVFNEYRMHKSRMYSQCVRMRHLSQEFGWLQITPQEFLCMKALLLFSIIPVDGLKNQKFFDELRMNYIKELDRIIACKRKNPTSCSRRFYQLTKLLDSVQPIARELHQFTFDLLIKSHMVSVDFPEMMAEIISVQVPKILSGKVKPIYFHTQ
As to the kind of experiment: Assay for binding affinity to androgen receptor ([3H]methyltrienolone radioligand competition, cell cytosol). The conditions noted are these: binding to the androgen receptor, 1 nM [3H]methyltrienolone, 24 hr at 4° C. The protocol: Fractions of cell cytosol ([…]) were incubated for 24 hr at 4° C. with 1 nM [^3H]methyltrienolone in the absence or presence of the test compound in a buffer containing 25 mM Hepes-Tris (pH 7.4), 1 mM EDTA, 10 mM Na2MoO4, 2 mM DTT, 5 μM triamcinolone acetonide, and 10% glycerol. Nonspecific binding was determined in the presence of […] testosterone. Following incubation, the samples were filtered rapidly under vacuum through glass fiber filters (GF/B, Packard) presoaked with 0.3% PEI and rinsed several times with ice-cold 50 mM Tris-HCl using a 96-sample cell harvester (Unifilter, Packard). The filters were dried then counted for radioactivity in a scintillation counter (Topcount, Packard) using a scintillation cocktail (Microscint 0, Packard). The results are expressed as a percent inhibition of the control radioligand specific binding. The standard reference compound is testosterone, which is tested in each experiment at several concentrations to obtain a competition curve from which its IC50 is calculated.
A general note: In a radioligand displacement assay an active substance lowers the binding of a labelled ligand.

In the next assay the test system is VCaP cells. As to the kind of experiment: Cellular growth inhibition assay for VCaP cells, CellTiter-Glo. The format is cell-based, human. The conditions noted are these: 72 hours. The gist of the method:
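GI50 values come from four-parameter curve fits of luminescence data normalized to a zero baseline. Compound, in medium with 0.5% DMSO, was added one day after plating and left for 72 h before CellTiter-Glo 2.0 addition.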

For assay [3], the target named is T2, progesterone receptor ligand binding domain (GST-tagged PR LBD) (Homo sapiens, UniProt P06401).
T2 construct: purchased Life Technologies A15905 or a15906
T2 sequence (P06401 679-913 limits assumed): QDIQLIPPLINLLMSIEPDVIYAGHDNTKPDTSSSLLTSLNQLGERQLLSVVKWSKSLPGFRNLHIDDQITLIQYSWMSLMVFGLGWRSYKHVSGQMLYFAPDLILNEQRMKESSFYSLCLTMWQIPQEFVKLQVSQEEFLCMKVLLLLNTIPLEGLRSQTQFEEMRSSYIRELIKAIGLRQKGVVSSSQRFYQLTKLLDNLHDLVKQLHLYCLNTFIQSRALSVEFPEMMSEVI
As to the kind of experiment: FP Assay for Binding Affinity to Progesterone Receptor (PolarScreen Progesterone Receptor Competitor Assay Kit). The note with it: fluorescence polarization, Fluormone tracer, 2 hours at room temperature. The protocol: Exemplary compounds were tested for ability to bind to the progesterone receptor ligand binding domain (LBD).
Compounds were tested using the PolarScreen™ Progesterone Receptor Competitor Assay Kit (Life Technologies Cat #A15905 or a15906), as per the manufacturer's instructions. Briefly, GST-tagged PR LBD, Fluormone tracer, and compound were mixed and incubated for 2 hours at room temperature in the dark. Following incubation, the plates were spun at 3000×g for 30 seconds, then sealed with an optical adhesive cover, and fluorescence polarization was measured using appropriate excitation and emission filters with an EnVision Plate Reader (Perkin Elmer). Compound concentration vs. mP value were plotted in Prism (GraphPad). A four-parameter non-linear regression curve fit was applied to dose-response data to determine the half-maximal inhibitory concentration (IC50) for each test compound.
Background: Fluorescence polarisation rises when a labelled molecule tumbles more slowly, as on binding a larger partner.

A further assay has as its system T47D cells. The assay can be described thus: Cellular Growth Inhibition Assay for T47D Cells (CellTiter-Glo). The format is cell-based, human. The conditions noted are these: 72 hours. The gist of the method: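 GI50 values derive from four-parameter regression of CellTiter-Glo 2.0 luminescence, using zero luminescence as baseline. Human breast cancer T47D cells (3000/well; DMEM, 10% FBS, 0.2 units/mL insulin) were exposed for 72 h to compound dilutions at 0.5% DMSO, with dosing starting 24 h after seeding.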

For orientation: GI50 means the concentration at which growth is held to half of that of the control. Read a low GI50 as greater sensitivity of the cells. What is called Ki is a measure of affinity in units of concentration, obtained from inhibition or displacement. A lower Ki goes with higher affinity. `CCS(=O)(=O)Nc1ccc(Oc2cccc(OCCOC3CCN(c4ccc(C(=O)N[C@H]5C(C)(C)[C@H](Oc6ccc(C#N)c(Cl)c6)C5(C)C)cc4)CC3)c2)c(-c2cn(C)c(=O)c3[nH]ccc23)c1` [Compound I-69, N-((1r, 3r)-3-(3-chloro-4-cyanophenoxy)-2,2,4,4-tetramethylcyclobutyl)-4-(4-(2-(3-(4-(ethylsulfonamido)-2-(6-methyl-7-oxo-6,7-dihydro-1H-pyrrolo[2,3-c]pyridin-4-yl)phenoxy)phenoxy)ethoxy)piperidin-1-yl)benzamide]: the GI50 (in assay [1]; in assay [2]; with VCaP cells (Homo sapiens)) was < 500 nM throughout. The Ki on androgen receptor is < 50 nM.
Regarding `CCS(=O)(=O)Nc1ccc(Oc2cccc(OCCOC3CCN(c4ccc(C(=O)N[C@H]5C(C)(C)[C@H](Oc6ccc(C#N)c(Cl)c6)C5(C)C)nc4)CC3)c2)c(-c2cn(C)c(=O)c3[nH]ccc23)c1` [Compound I-72, N-((1r, 3r)-3-(3-chloro-4-cyanophenoxy)-2,2,4,4-tetramethylcyclobutyl)-5-(4-(2-(3-(4-(ethylsulfonamido)-2-(6-methyl-7-oxo-6,7-dihydro-1H-pyrrolo[2,3-c]pyridin-4-yl)phenoxy)phenoxy)ethoxy)piperidin-1-yl)picolinamide], the GI50 (in assay [1]; in assay [2]; in the assay with VCaP cells (Homo sapiens)) was < 500 nM in each case. At androgen receptor, this compound showed a Ki of 50 to 500 nM.
What is called IC50 is the concentration at which inhibition is half-maximal. A higher IC50 goes with lower potency. In turn, `CCS(=O)(=O)Nc1ccc(Oc2cccc(N(C)CCNC3CCN(c4ncc(C(=O)N[C@H]5C(C)(C)[C@H](Oc6ccc(C#N)c(Cl)c6)C5(C)C)cn4)CC3)c2)c(-c2cn(C)c(=O)c3[nH]ccc23)c1` [Compound I-83] displayed an IC50 in assay [3] of 50 to 500 nM. Moreover, the GI50 was < 500 nM in assay [1], > 3000 nM in assay [2], < 500 nM in the assay with T47D cells (Homo sapiens) and < 500 nM in the assay with VCaP cells (Homo sapiens).
As to `CCS(=O)(=O)c1ccc(Oc2cccc(CCCOC3CC4(C3)CN(c3ccc(C(=O)N[C@H]5C(C)(C)[C@H](Oc6ccc(C#N)c(Cl)c6)C5(C)C)cn3)C4)c2F)c(-c2cn(C)c(=O)c3[nH]ccc23)c1` [Compound I-215], the IC50 in assay [3] was > 2500 nM. The GI50 (in assay [1]; in assay [2]; in the assay on T47D cells (Homo sapiens); with VCaP cells (Homo sapiens)) was < 500 nM each time.
The compound `CN(CCCCc1ccc(Oc2ccc(C(C)(C)O)cc2-c2cn(C)c(=O)c3[nH]ccc23)cc1)c1ncc(C(=O)N[C@H]2C(C)(C)[C@H](Oc3ccc(C#N)c(Cl)c3)C2(C)C)cn1` [Compound I-218] yielded an IC50 in assay [3] of 50 to 500 nM. Also, the GI50 was < 500 nM in assay [1], 1500 to 3000 nM in assay [2], 500 to 1500 nM with T47D cells (Homo sapiens) and 1500 to 3000 nM in the assay with VCaP cells (Homo sapiens).
Compound `Cn1cc(-c2cc(C(C)(C)O)ccc2Oc2cccc(OCCN3CCC34CN(c3ncc(C(=O)N[C@H]5C(C)(C)[C@H](Oc6ccc(C#N)c(Cl)c6)C5(C)C)cn3)C4)c2F)c2cc[nH]c2c1=O` [Compound I-222] gave an IC50 in assay [3] of 500 to 2500 nM. Also, the GI50 in assay [1] is < 500 nM; in assay [2] it was 500 to 1500 nM; with T47D cells (Homo sapiens) it was 500 to 1500 nM; in the assay on VCaP cells (Homo sapiens), < 500 nM.
In turn, `CC(C)N(CCOc1cccc(Oc2ccc(C(C)(C)O)cc2-c2cn(C)c(=O)c3[nH]ccc23)c1F)C1CCN(c2ncc(C(=O)N[C@H]3C(C)(C)[C@H](Oc4ccc(C#N)c(Cl)c4)C3(C)C)cn2)CC1` [Compound I-224] yielded an IC50 in assay [3] of 50 to 500 nM. Also, the 50% growth inhibitory concentration (GI50) (in assay [1]; in assay [2]; in the assay with T47D cells (Homo sapiens); in the assay on VCaP cells (Homo sapiens)) was < 500 nM each time.
`Cn1cc(-c2cc(C(C)(C)O)ccc2Oc2ccc(F)c(OCCC3CC4(C3)CN(c3ncc(C(=O)N[C@H]5C(C)(C)[C@H](Oc6ccc(C#N)c(Cl)c6)C5(C)C)cn3)C4)c2F)c2cc[nH]c2c1=O` [Compound I-225]: the IC50 in assay [3] was < 50 nM. Also, the GI50 (in assay [1]; in assay [2]; in the assay on T47D cells; with VCaP cells) was < 500 nM throughout.
As for `CC(C)N(CCN(C)C1CCN(c2ncc(C(=O)N[C@H]3C(C)(C)[C@H](Oc4ccc(C#N)c(Cl)c4)C3(C)C)cn2)CC1)c1cccc(Oc2ccc(C(C)(C)O)cc2-c2cn(C)c(=O)c3[nH]ccc23)c1F` [Compound I-226], in assay [3], the IC50 was < 50 nM. The GI50 in assay [1] is < 500 nM; in assay [2], 500 to 1500 nM; with T47D cells, > 3000 nM; with VCaP cells, 500 to 1500 nM.
Take `Cn1cc(-c2cc(C(C)(C)O)ccc2Oc2cccc(OCCN3CCN(c4ncc5c(n4)CN([C@H]4C(C)(C)[C@H](Oc6ccc(C#N)c(Cl)c6)C4(C)C)C5=O)CC3)c2F)c2cc[nH]c2c1=O` [Compound I-227]: the IC50 in assay [3] was < 50 nM. In addition, the GI50 (in assay [1]; in assay [2]; in the assay on T47D cells; with VCaP cells) was < 500 nM in each case.
Regarding `Cn1cc(-c2cc(C(C)(C)O)ccc2Oc2cccc(OCCN3CC4(C3)CN(c3ncc(C(=O)N[C@H]5C(C)(C)[C@H](Oc6ccc(C#N)c(Cl)c6)C5(C)C)cn3)C4)c2F)c2cc[nH]c2c1=O` [Compound I-229], the IC50 in assay [3] lay within 50 to 500 nM. The GI50 in assay [1] was < 500 nM; in assay [2], 500 to 1500 nM; in the assay on T47D cells, < 500 nM; with VCaP cells, < 500 nM.
Take `Cn1cc(-c2cc(C(C)(C)O)ccc2Oc2ccc(OCC3CCN(c4ncc5c(n4)CN([C@H]4C(C)(C)[C@H](Oc6ccc(C#N)c(Cl)c6)C4(C)C)C5=O)CC3)cc2)c2cc[nH]c2c1=O` [Compound I-233]: the IC50 in assay [3] was > 2500 nM. Further, the GI50 in assay [1] is 500 to 1500 nM; in assay [2], > 3000 nM; in the assay with T47D cells (Homo sapiens) it was 500 to 1500 nM; with VCaP cells (Homo sapiens), < 500 nM.
In assay [3], `CCS(=O)(=O)c1ccc(Oc2cccc(CCCC3CCN(c4ncc(C(=O)N[C@H]5C(C)(C)[C@H](Oc6ccc(C#N)c(Cl)c6)C5(C)C)cn4)CC3)c2F)c(-c2cn(C)c(=O)c3[nH]ccc23)c1` [Compound I-245] came in with an IC50 of 500 to 2500 nM. Further, the GI50 in assay [1] was < 500 nM; in assay [2], > 3000 nM; with T47D cells it was < 500 nM; with VCaP cells, 500 to 1500 nM.
